# Legend:
# [1] = target: T1, CDK4/CycD1 (Homo sapiens, UniProt P11802); assay: 33PanQuinase Activity Assay (ProQuinase GmbH); type: biochemical
# T1 construct: purchased ProQuinase GmbH, Freiburg, Germany (assay service)
# Excerpt: ^33PanQuinase Activity Assay (ProQuinase GmbH) and SelectScreen™ Kinase Profiling (Invitrogen Corp.)
# ^33PanQuinase Activity Assay is a proprietary, radioisotopic protein kinase assay developed by ProQuinase GmbH, Freiburg, Germany. Details on assay conditions can be found on the company's website.
# [2] = target: T2, T315I Abl (Mus musculus, UniProt P00520, T315I); assay: cAbl Luminescence-based Enzyme Assay (Kinase-Glo); type: biochemical
# T2 construct: The c-Abl T315I KD (kinase domain) was purified as follows; made in house; host or cells: E. coli BL21(DE3) pSA0145 (lambda phosphatase co-expression) or BL21(DE3)Codon+RIL
# T2 sequence (P00520 242-493 T315I limits assumed): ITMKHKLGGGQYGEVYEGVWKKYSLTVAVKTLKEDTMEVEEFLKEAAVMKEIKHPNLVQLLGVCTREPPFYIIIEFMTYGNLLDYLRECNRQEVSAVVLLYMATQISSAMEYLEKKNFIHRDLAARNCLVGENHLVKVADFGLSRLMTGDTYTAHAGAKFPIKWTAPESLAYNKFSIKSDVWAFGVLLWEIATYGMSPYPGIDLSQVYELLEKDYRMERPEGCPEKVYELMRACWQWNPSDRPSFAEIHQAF
# Excerpt: Homogeneous luminescence-based inhibitor screening assays were developed for c-Abl, MET, AurA, and PDK1 kinases (among others). Each of these assays made use of an ATP depletion assay (Kinase-Glo™, Promega Corporation, Madison, Wis.) to quantitate kinase activity. The Kinase-Glo™ format uses a thermostable luciferase to generate luminescent signal from ATP remaining in solution following the kinase reaction. The luminescent signal is inversely correlated with the amount of kinase activity.
# Dose response was analyzed using the equation: y=min+{(max−min)/(1 +10^[compound]-logIC50)}, where y is the observed initial slope, max=the slope in the absence of inhibitor, min=the slope at infinite inhibitor, and the IC50 is the [compound] that corresponds to ½ the total observed amplitude (Amplitude=max−min).
# An open-reading frame for c-Abl was amplified from a Mus musculus (mouse) cDNA library prepared from freshly harvested mouse liver using a commercially available kit (Invitrogen) by PCR using the following primers: […]
# The c-Abl T315I KD (kinase domain) was purified as follows. Cells were collected by centrifugation, lysed in diluted cracking buffer (50 mM Tris HCl, pH 7.5, 500 mM KCl, 0.1% Tween 20, 20 mM Imidazole, with sonication, and centrifuged to remove cell debris. The soluble fraction was purified over an IMAC column charged with nickel (Pharmacia, Uppsala, Sweden), and eluted under native conditions with a gradient of 20 mM to 500 mM imidazole in 50 mM Tris, pH7.8, 500 mM NaCl, 10 mM methionine, 10% glycerol. The protein was then further purified by gel filtration using a Superdex 75 preparative grade column equilibrated in GF5 buffer (10 mM HEPES, pH7.5, 10 mM methionine, 500 mM NaCl, 5 mM DTT, and 10% glycerol). Fractions containing the purified c-Abl T315I KD kinase domain were pooled. The protein obtained was 98% pure as judged by electrophoresis on SDS polyacrylamide gels. […] The protein was then dephosphorylated with Shrimp Alkaline Phosphatase (MBI Fermentas, Burlington, Canada) under the following conditions: 100U Shrimp Alkaline Phosphatase/mg of c-Abl T315I KD, 100 mM MgCl2, and 250 mM additional NaCl. The reaction was run overnight at 23° C. The protein was determined to be unphosphorylated by Mass spectroscopic analysis. Any precipitate was spun out and the soluble fraction was separated from reactants by gel filtration using a Superdex 75 preparative grade column equilibrated in GF4 buffer (10 mM HEPES, pH7.5, 10 mM methionine, 150 mM NaCl, 5 mM DTT, and 10% glycerol).
# cAbl Luminescence-based Enzyme Assay
# Materials: Abl substrate peptide=EAIYAAPFAKKK-OH (Biopeptide, San Diego, Calif.), ATP (Sigma Cat#A-3377, FW=551), HEPES buffer, pH 7.5, Bovine serum albumin (BSA) (Roche 92423420), MgCl2, Staurosporine (Streptomyces sp. Sigma Cat#85660-1MG), white Costar 384-well flat -bottom plate (VWR Cat#29444-088), Abl kinase (see below), Kinase-Glo™ (Promega Cat#V6712).
# Stock Solutions: 10 mM Abl substrate peptide (13.4 mg/ml in miliQH2O) stored at −20° C.; 100 mM HEPES buffer, pH 7.5 (5 ml 1M stock+45ml miliQH2O); 10 mM ATP (5.51 mg/ml in dH2O) stored at −20° C. (diluted 50 μl into total of 10 ml miliQH2O daily =50 μM ATP working stock); 1% BSA (1 g BSA in 100 ml 0.1 M HEPES, pH 7.5, stored at −20° C.), 100 μM MgCl2; 200 μM Staurosporine, 2× Kinase-Glo™ reagent (made fresh or stored at −20° C.).
# Standard Assay Setup for 384-well format (20 μl kinase reaction, 40 μl detection reaction): 10 mM MgCl2; 100 μM Abl substrate peptide; 0.1% BSA; 1 μl test compound (in DMSO); 0.4 μg/ml Abl kinase domain; 10 μM ATP; 100 mM HEPES buffer. Positive controls contained DMSO with no test compound. Negative controls contained 10 μM staurosporine.
# The kinase reactions were initiated at time t=0 by the addition of ATP. Kinase reactions were incubated at 21° C. for 30 min, then 20 μl of Kinase-Glo™ reagent were added to each well to quench the kinase reaction and initiate the luminescence reaction. […]
# [3] = target: T3, T315I Ba/F3 (Homo sapiens, UniProt P00519, T315I, cells depend on it, form not given); assay: 96-well XTT cell survival assay (Ba/F3 cells); type: cell-based; conditions: 72 hours, read-out: T315I Ba/F3 XTT IC50
# T3 construct: The candidate is BCR (P11274) N-terminal part, as in Bcr-Abl p210 or p185
# Procedure: Ba/F3 cells were maintained in RPMI 1640 supplemented with 10% FBS, penicillin/streptomycin and 5 ng/ml recombinant mouse IL-3.
# Compounds were tested in the following assays in duplicate.
# 96-well XTT assay (Ba/F3 cells): Cells were grown in growth media containing various concentrations of compounds (duplicates) on a 96-well plate for 72 hours at 37° C. The starting cell number was 5000-8000 cells per well and volume was 120 μl. At the end of the 72-hour incubation, 40 μl of XTT labeling mixture (50:1 solution of sodium 3′-[1-(phenylamino-carbonyl)-3,4-tetrazolium]-bis (4-methoxy-6-nitro) benzene sulfonic acid hydrate and Electron-coupling reagent: PMS (N-methyl dibenzopyrazine methyl sulfate) were added to each well of the plate. After an additional 2-6 hours of incubation at 37° C., the absorbance reading at 405 nm with background correction at 650 nm was measured with a spectrophotometer.
# T1 sequence (P11802 whole entry): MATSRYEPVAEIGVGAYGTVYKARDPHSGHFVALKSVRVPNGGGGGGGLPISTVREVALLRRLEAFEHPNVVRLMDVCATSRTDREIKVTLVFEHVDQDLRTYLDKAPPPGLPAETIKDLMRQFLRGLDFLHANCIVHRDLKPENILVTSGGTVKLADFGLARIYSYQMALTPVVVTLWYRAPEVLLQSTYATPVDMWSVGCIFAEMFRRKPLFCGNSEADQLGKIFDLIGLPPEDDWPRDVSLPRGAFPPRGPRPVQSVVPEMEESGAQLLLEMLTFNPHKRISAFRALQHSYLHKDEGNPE
# T1 sequence (P24385 whole entry partner): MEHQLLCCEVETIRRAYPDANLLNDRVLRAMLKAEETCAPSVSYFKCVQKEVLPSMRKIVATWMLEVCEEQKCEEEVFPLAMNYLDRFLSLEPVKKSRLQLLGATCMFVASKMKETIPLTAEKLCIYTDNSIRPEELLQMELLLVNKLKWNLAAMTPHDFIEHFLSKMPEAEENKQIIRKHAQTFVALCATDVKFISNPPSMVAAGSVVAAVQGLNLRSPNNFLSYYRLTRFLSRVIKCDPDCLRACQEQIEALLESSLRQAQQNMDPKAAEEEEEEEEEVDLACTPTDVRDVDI
SMILES,IC50 [1],IC50 [2],GI50 [3]
"O=C(Nc1cc[nH]n1)Nc1nc2[nH]nc(-n3cncc3-c3ccccc3Cl)c2s1 [1-{3-[5-(2-Chloro-phenyl)-imidazol-1-yl]-1H-pyrazolo[3,4-d]thiazol-5-yl}-3-(1H-pyrazol-3-yl)-urea]",100 to 1000 nM,,
"O=C(Nc1nc2[nH]nc(-n3cncc3-c3ccc4ccccc4c3)c2s1)C1CC1 [Cyclopropanecarboxylic acid [3-(5-naphthalen-2-yl-imidazol-1-yl)-1H-pyrazolo[3,4-d]thiazol-5-yl]-amide]",,1000 to 10000 nM,
"O=C(Nc1nc2[nH]nc(-n3cncc3-c3cc(Cl)cc(Cl)c3Cl)c2s1)C1CC1 [Cyclopropanecarboxylic acid {3-[5-(2,3,5-trichloro-phenyl)-imidazol-1-yl]-1H-pyrazolo[3,4-d]thiazol-5-yl}-amide]",1000 to 10000 nM,,
"O=C(Nc1nc2[nH]nc(-n3cncc3-c3ccccn3)c2s1)C1CC1 [Cyclopropanecarboxylic acid [3-(5-pyridin-2-yl-imidazol-1-yl)-1H-pyrazolo[3,4-d]thiazol-5-yl]-amide]",,< 100 nM,1000 to 10000 nM
"O=C(Nc1nc2[nH]nc(-n3cncc3-c3ccccc3)c2s1)C1CC1 [Cyclopropanecarboxylic acid [3-(5-phenyl-imidazol-1-yl)-1H-pyrazolo[3,4-d]thiazol-5-yl]-amide]",,100 to 1000 nM,100 to 1000 nM
"O=C(Nc1nc2[nH]nc(-n3cncc3-c3c(Cl)ccc(Cl)c3Cl)c2s1)C1CC1 [Cyclopropanecarboxylic acid {3-[5-(2,3,6-trichloro-phenyl)-imidazol-1-yl]-1H-pyrazolo[3,4-d]thiazol-5-yl}-amide]",,< 100 nM,100 to 1000 nM

# The next lines start with results.
IC50 [1],IC50 [2],SMILES,GI50 [3]
< 100 nM,< 100 nM,"NC(=O)COc1ccc(-c2cncn2-c2n[nH]c3nc(NC(=O)C4CC4)sc23)c(Cl)c1 [Cyclopropanecarboxylic acid {3-[5-(4-carbamoylmethoxy-2-chloro-phenyl)-imidazol-1-yl]-1H-pyrazolo[3,4-d]thiazol-5-yl}-amide]",
< 100 nM,< 100 nM,"O=C(Nc1nc2[nH]nc(-n3cncc3-c3cccc(F)c3F)c2s1)C1CC1 [Cyclopropanecarboxylic acid {3-[5-(2,3-difluoro-phenyl)-imidazol-1-yl]-1H-pyrazolo[3,4-d]thiazol-5-yl}-amide]",100 to 1000 nM
< 100 nM,< 100 nM,"O=C(Nc1nc2[nH]nc(-n3cncc3-c3c(Cl)cccc3Cl)c2s1)C1CC1 [Cyclopropanecarboxylic acid {3-[5-(2,6-dichloro-phenyl)-imidazol-1-yl]-1H-pyrazolo[3,4-d]thiazol-5-yl}-amide]",100 to 1000 nM
< 100 nM,< 100 nM,"O=C(Nc1nc2[nH]nc(-n3cncc3-c3ccccc3Cl)c2s1)C1CC1 [Cyclopropanecarboxylic acid {3-[5-(2-chloro-phenyl)-imidazol-1-yl]-1H-pyrazolo[3,4-d]thiazol-5-yl}-amide]",100 to 1000 nM

# — patent US20070173488A1, “Pyrazolothiazole Protein Kinase Modulators” (SGX Pharmaceuticals, Inc., priority 2005, published 2007)
